PubChem BioAssay (NCI)
Several values for one entry are separate records, joined by “and”; a condition that tells them apart may be missing. Identical values can stand only once.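 48-hour exposure; five concentrations; linearly interpolated endpoints. GI50 is the concentration that inhibits growth by half. TGI denotes the concentration required for complete inhibition of growth.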

Legend:
Experiment in all cases: DTP human tumour cell line panel, 48 h
SNB-75 CNS = tested on: SNB-75 CNS
EKVX NSCLC = tested on: EKVX NSCLC
K-562 leukemia = tested on: K-562 leukemia
HS 578T breast = tested on: HS 578T breast
SF-539 CNS = tested on: SF-539 CNS
NCI-H226 lung = tested on: NCI-H226 lung
HCC-2998 colon = tested on: HCC-2998 colon
SF-268 CNS = tested on: SF-268 CNS
CAKI-1 renal = tested on: CAKI-1 renal
TK-10 renal = tested on: TK-10 renal

Row | Structure (SMILES) | GI50 (SNB-75 CNS) [nM] | TGI (SNB-75 CNS) | GI50 (EKVX NSCLC) [nM] | TGI (EKVX NSCLC) [nM] | GI50 (K-562 leukemia) [nM] | TGI (K-562 leukemia) [nM] | GI50 (HS 578T breast) [nM] | TGI (HS 578T breast) | GI50 (SF-539 CNS) [nM] | TGI (SF-539 CNS) | GI50 (NCI-H226 lung) [nM] | TGI (NCI-H226 lung) | GI50 (HCC-2998 colon) [nM] | TGI (HCC-2998 colon) | GI50 (SF-268 CNS) [nM] | TGI (SF-268 CNS) | GI50 (CAKI-1 renal) [nM] | TGI (CAKI-1 renal) [nM] | GI50 (TK-10 renal) [nM] | TGI (TK-10 renal)
1 | C[C@]12CC[C@H]3[C@@H](CC[C@]4(O)C[C@@H](O[C@@H]5O[C@H](CO)[C@@H](O[C@@H]6OC[C@@H](O)[C@H](O)[C@H]6O)[C@H](O)[C@H]5O)CC[C@]34C=O)[C@@]1(O)CC[C@@H]2C1=CC(=O)OC1 | 1150 | 6650 nM | 781 | 1930 | 1570 | 10200 | 845 | 4310 nM | 853 | 1840 nM | 1470 | 3690 nM | 3090 | 21300 nM | 739 | 2420 nM | 886 | 2260 | 1190 | 4490 nM
2 | CCCCOC(=O)c1c(C)[nH]c(/C=C2\N=C(c3ccc[nH]3)C=C2OC)c1C | 124 | 892 nM | 460 | 4880 | 155 | 8610 | 147 | 1190 nM | 245 | 2000 nM | 310 | 1720 nM | 138 | 2060 nM | 242 | 9070 nM | 71 | 3850 | 185 | 5070 nM
3 | CCC(C)C1NC(=O)C(NC(=O)C(CC(C)C)N(C)C(=O)[C@@H]2CC(O)CN2C(=O)[C@H](C)O)C(C)OC(=O)[C@H](Cc2ccc(OC)cc2)N(C)C(=O)[C@@H]2CCCN2C(=O)[C@H](CC(C)C)NC(=O)C(C)C(=O)[C@H](C(C)C)OC(=O)CC1O (some centres undefined) | 33.8 | 1250 nM and 614 nM |  | 3320 | 25 | 352 | < 10 | 283 nM and 31.7 nM | 10.4 | 211 nM and 335 nM | 79.9 | 521 nM and 572 nM | < 10 | 637 nM and 399 nM | 45.1 | 1700 nM and 1040 nM | 229 | 2990 | 224 | 4520 nM and 2050 nM
4 | COc1ncc(-c2ccc3nccc(C#CCCCCC(=O)NO)c3c2)cc1NS(=O)(=O)c1ccc(F)cc1F | 54.3 | 827 nM | 56.9 | 4090 | 1980 | 16700 | 30.7 | 1170 nM | 68.9 | 1340 nM | 1590 | 15500 nM | 75.8 | 4260 nM | 121 | 3770 nM | 875 | 11800 | 29.4 | 1370 nM
